Like-named read-outs stand apart in the source and are kept apart here.

The values below come from patent US8461170B2, “Chemical compounds” (Astrazeneca AB, priority 2010, dated 2013).

Test [1] addresses ALK (h) (Homo sapiens, UniProt Q9UM73). The experiment in a line: alternate ALK protocol (33P-ATP filter-binding radiometric assay). The settings on record: 250 μM KKKSPGEYVNIEFG substrate, [γ-33P-ATP], 40 minutes at room temperature, read-out: ALK inhibitory activities (IC50s (μM)). In kind it is biochemical. On the procedure: Examples 1, 9 and 10 were additionally tested using an alternate ALK protocol as follows: ALK (h) was incubated with 8 mM MOPS pH 7.0, 0.2 mM EDTA, 250 μM KKKSPGEYVNIEFG, 10 mM MgAcetate and [γ-33P-ATP] (specific activity approx. 500 cpm/pmol, concentration as required). The reaction was initiated by the addition of the MgATP mix. After incubation for 40 minutes at room temperature, the reaction was stopped by the addition of 3% phosphoric acid solution. 10 μL of the reaction was spotted onto a P30 filtermat and washed three times for 5 minutes in 75 mM phosphoric acid and once in methanol prior to drying and scintillation counting. When tested in the assay described above, Examples 1, 9 and 10 each had ALK inhibitory activities (IC50s (μM)) of 0.004, 0.019, and 0.006, respectively.

Test [2] addresses T1, human ALK (Homo sapiens, UniProt Q9UM73).
T1 construct: GST (N); purchased Invitrogen, Carlsbad, Calif; (or prepared by AstraZeneca); host or cells: insect cells
The experiment in a line: ALK kinase mobility shift assay (Caliper LC3000). The class given is biochemical. The settings on record: ATP 30 μM (Km) or 5 mM, not specified which. The method, then: ALK kinase activity was determined by measuring the kinase's ability to phosphorylate a tyrosine residue within a peptide substrate using a mobility shift assay on a Caliper LC3000 reader (Caliper Life Sciences, Hopkinton, Mass.), which measures fluorescence of the phosphorylated and unphosphorylated substrate and calculates a ratiometric value to determine percent turnover.
To measure ALK kinase activity, the ALK enzyme used was N-terminal GST-tagged, recombinant, human ALK, amino acids 1058-1620 (Genbank Accession number NP_004295) expressed in insect cells and activated in-vitro via autophosphorylation. This was either purchased from a commercially available source (Invitrogen, Carlsbad, Calif.) or prepared by AstraZeneca. The kinase was incubated with a FAM labeled SRCtide substrate (5FAM-GEEPLYWSFPAKKK-NH2, AnaSpec, Fremont, Calif.), 30 μM adenosine triphosphate (ATP, at Km concentration) or 5 mM ATP, 50 mM HEPES buffer (pH 7.3), 1 mM DTT, 0.01% Tween 20, 50 μg/ml BSA and 10 mM MgCl2 for 90 minutes at room temperature. After this time, the kinase reaction was stopped by adding quenching buffer containing final concentrations of 36 mM ethylenediaminetetraacetic acid (EDTA), 65 mM HEPES buffer (pH 7.3), 0.2% Coatin Reagent 3 (Caliper Life Sciences, Hopkinton, Mass.), and 0.003% Tween 20. The reaction was performed in 384 well microtitre plates and the reaction products were detected using the Caliper LC3000 Reader in the presence of separation buffer consisting of 100 mM HEPES (pH 7.3), 15.8 mM EDTA, 0.1% Coatin Reagent 3 (Caliper, Mass.), 0.015% Brij-35, 5% DMSO, and 5.6 mM MgCl2. The separation conditions set up on the Caliper LC3000 were −1.7 PSI, −400V upstream voltage, −2000V downstream voltage, 0.2 second sample sip, 45 second post sip, and 150 seconds final delay. The percentage of inhibition of ALK enzyme activity by compounds were measured based on Max signals (DMSO control) and Min signals (EDTA control) in the plates. Data was graphed and IC50s calculated by IDBS ActivityBase program.

Setting [3] is: cumulative geometric means including test re-runs, some obtained since the priority filings, read-out: ALK Enzyme IC50 (μM)**.
Where [4] appears, read: geometric means of multiple test runs, as presented in the priority filings, read-out: ALK Enzyme IC50 (μM)*.

T1 sequence (Q9UM73 1058-1620): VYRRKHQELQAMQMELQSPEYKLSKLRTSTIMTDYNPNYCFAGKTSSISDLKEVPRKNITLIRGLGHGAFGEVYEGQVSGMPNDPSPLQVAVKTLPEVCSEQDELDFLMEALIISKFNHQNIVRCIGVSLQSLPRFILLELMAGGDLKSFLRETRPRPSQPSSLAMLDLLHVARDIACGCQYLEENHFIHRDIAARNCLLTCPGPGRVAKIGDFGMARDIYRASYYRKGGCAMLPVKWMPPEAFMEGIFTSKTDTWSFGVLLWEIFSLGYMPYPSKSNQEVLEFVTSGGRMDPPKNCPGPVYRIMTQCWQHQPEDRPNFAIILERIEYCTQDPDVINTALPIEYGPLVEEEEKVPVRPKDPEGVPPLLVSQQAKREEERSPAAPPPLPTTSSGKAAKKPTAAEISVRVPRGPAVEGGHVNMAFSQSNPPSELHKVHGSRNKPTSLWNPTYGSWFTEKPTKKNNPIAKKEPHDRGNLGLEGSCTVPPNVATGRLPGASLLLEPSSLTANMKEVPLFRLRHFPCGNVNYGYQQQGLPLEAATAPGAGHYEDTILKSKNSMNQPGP
Sequence of ALK (h) (Q9UM73 19-1620): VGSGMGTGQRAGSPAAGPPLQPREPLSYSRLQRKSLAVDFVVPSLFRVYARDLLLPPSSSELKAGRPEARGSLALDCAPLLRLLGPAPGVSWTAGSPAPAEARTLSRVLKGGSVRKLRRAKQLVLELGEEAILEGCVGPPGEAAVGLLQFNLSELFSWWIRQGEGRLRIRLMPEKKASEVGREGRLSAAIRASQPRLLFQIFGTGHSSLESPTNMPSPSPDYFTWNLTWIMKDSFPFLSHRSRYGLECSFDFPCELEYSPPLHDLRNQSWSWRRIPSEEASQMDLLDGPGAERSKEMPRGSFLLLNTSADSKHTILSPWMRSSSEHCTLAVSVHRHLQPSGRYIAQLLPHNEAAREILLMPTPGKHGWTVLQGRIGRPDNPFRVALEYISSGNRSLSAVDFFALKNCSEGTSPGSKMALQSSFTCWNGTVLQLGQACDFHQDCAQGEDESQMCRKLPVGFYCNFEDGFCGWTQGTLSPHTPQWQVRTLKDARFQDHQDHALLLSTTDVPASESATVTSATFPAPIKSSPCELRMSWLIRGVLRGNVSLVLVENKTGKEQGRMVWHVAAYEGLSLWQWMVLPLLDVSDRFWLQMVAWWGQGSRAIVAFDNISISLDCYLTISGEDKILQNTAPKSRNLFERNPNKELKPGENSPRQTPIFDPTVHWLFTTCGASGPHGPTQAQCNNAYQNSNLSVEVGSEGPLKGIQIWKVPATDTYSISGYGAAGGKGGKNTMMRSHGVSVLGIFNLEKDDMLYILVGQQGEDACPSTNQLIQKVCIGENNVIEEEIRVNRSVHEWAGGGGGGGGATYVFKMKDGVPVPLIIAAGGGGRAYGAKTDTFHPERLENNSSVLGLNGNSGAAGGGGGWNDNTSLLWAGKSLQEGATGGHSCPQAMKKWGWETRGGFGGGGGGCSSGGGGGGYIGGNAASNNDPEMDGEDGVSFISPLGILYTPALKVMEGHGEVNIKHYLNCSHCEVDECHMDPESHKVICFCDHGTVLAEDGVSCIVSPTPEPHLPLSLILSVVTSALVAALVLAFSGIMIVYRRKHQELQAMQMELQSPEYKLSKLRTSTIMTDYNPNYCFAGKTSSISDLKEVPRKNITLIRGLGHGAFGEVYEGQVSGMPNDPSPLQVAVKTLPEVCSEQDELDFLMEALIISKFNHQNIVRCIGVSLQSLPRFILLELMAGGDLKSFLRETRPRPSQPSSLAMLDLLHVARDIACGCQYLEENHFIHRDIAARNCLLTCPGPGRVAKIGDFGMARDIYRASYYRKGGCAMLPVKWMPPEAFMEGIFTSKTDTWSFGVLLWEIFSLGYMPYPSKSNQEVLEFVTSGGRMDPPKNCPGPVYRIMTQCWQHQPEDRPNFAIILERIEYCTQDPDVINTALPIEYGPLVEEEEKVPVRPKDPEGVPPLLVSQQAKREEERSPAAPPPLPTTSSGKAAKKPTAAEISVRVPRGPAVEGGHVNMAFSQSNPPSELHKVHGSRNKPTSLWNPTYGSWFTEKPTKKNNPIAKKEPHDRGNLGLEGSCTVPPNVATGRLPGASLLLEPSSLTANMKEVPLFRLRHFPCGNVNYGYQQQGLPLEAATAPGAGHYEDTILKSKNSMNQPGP

In the case of `COc1cc(N2CCC(N)CC2)ccc1Nc1ncc(Cl)c(-c2c[nH]c3ccccc23)n1` [Example 1, N-(4-(4-Aminopiperidin-1-yl)-2-methoxyphenyl)-5-chloro-4-(1H-indol-3-yl)pyrimidin-2-amine], the IC50 turned out to be 0.004 µM in test [1], 0.021 µM in test [2] (setting [3]) and 0.015 µM in test [2] (setting [4]).

In the case of `COc1cc(N2CCC(N3CCN(C)CC3)CC2)ccc1Nc1ncc(C)c(-c2c[nH]c3ccccc23)n1` [Example 9, 4-(1H-Indol-3-yl)-N-(2-methoxy-4-(4-(4-methylpiperazin-1-yl)piperidin-1-yl)phenyl)-5-methylpyrimidin-2-amine], the IC50 in test [1] came to 0.019 µM; in test [2] (setting [3]), 0.068 µM; in test [2] (setting [4]), 0.05 µM.
